Data: patent EP0373543A2, “Diagnostic media and assay for detecting fungicide resistance” (BASF Corporation, priority 1988, dated 1990)

Experiments:
Type in all cases: cell-based
[1] = tested on: Botrytis cinerea; test: Microscopic spore germination on the Example 3 plates; conditions: microscopically examined
Method: (§1) Resistant and sensitive fungi were initially obtained from crops of cultivated fruit in the field. The percent germination reported below was calculated by microscopic evaluation. An average of four fields of view per plate was examined with each field of view having a total of about 100 to 300 spores. The total number of spores in each field of view was counted then either the number germinated or not germinated, whichever was easiest to count, was determined. These numbers were then combined appropriately and the percent germination calculated. Unless otherwise noted, resistant isolates are given a numerical designation and sensitive isolates a letter designation.
(§2) Diagnostic media was prepared substantially as described above in Preparation Example 1 except that bromothymol blue rather than bromcresol purple and only 4 g of dextrose was used per liter and the pH adjusted to 7.5, 8.0 and 8.5. These media were then inoculated with spores of either Botrytis cinerea or Rhizopus nigricans isolates substantially as previously described. The inoculated media was then incubated for 18 hours at room temperature and the results recorded below in Table III.
Strong color reactions were only observed from the resistant Botrytis cinerea isolates. Only slight reactions, at most, occurred from the Rhizopus nigricans inoculations. Example 4

[2] = tested on: Botrytis cinerea; test: Color change diameter on bromcresol purple media containing vinclozolin (Example 2); conditions: resistant isolates of Botrytis cinerea only; water dextrose media; after 4 days
[3] = tested on: Rhizopus nigricans; test: as above; design: key to COLOR CHANGE DIAMETER: T = only slight color change; conditions: for COLOR CHANGE DIAMETER: 20 hours
Method: (§3) To a stock solution of 0.4 g bromcresol purple in 260 mls of 0.01N sodium hydroxide, either 40 g of potato dextrose agar (PDA) or 40 g dextrose and 20 g agar (WA-dextrose medium) were added and the total volume brought up to 1 liter using distilled water. After autoclaving the media, a solution of vinclozolin in 5 mls of ethanol was added to afford 5 or 10 ppm concentrations and dispensed into petri plates (10 ml/plate). Sporulating cultures of Botrytis cinerea and Rhizopus nigricans (also known as Rhizopus stolonifer) were grown for two weeks on potato dextrose agar. Spores were transferred to the diagnostic media using sterile cotton tipped swabs and incubated for 20 hours at room temperature. The media was macroscopically examined and the diameter of color change detectable in the media was then measured.

[4] = tested on: Botrytis cinerea; test: as above; design: key to COLOR CHANGE DIAMETER: T = only slight color change; conditions: for COLOR CHANGE DIAMETER: 20 hours
Method: as §3

[5] = tested on: Rhizopus nigricans; test: Color change diameter on bromothymol blue diagnostic media at pH 7.5-8.5 (Example 3); design: key: T = only slight color change
Method: as §2

[6] = tested on: Botrytis cinerea; test: Color change response at varied vinclozolin concentration (Example 4); design: key: T = only slight color change; conditions: pH 5.5, about 48 hours
Method: Diagnostic media was prepared substantially as described above in Preparation Example 1 and the pH adjusted to 5.5 except that the vinclozolin concentrations in the media varied from about 10 ppm to 1000 ppm. The media was inoculated with 1 vinclozolin sensitive (BC-A) and 1 vinclozolin resistant isolate (BC-4) of Botrytis cinerea) and incubated at room temperature for about 48 hours.

[7] = tested on: Botrytis cinerea; test: Spore germination on agar-dextrose medium containing vinclozolin, microscopic examination (Example 1); conditions: 18 hours room temperature
Method: as §1
Botrytis cinerea of known sensitivity and resistance to vinclozolin were cultured on potato dextrose agar prepared according to manufacturer's directions and Preparation Example 2 for 2 weeks and induced to sporulate under long wave ultraviolet light. Spores were transferred using a sterile cotton tipped swab to a solid medium containing 20 g of agar, 20 g dextrose and the amount of vinclozolin in parts per million per liter of media shown in Table 1 below. The innoculated media was incubated at room temperature for 18 hours and microscopically examined for germination; the results of this assay are set forth below in Table 1 where "BC" means Botrytis cinerea.

## C=CC1(C)OC(=O)N(c2cc(Cl)cc(Cl)c2)C1=O (stereo not shown) [vinclozolin]
[1]; all of the resistant isolates
  spore germination: greater than 90%
[1]; sensitive isolate spores
  spore germination: no germination
[2]
  diameter color reaction: 25 mm
[3]; Rhizopus nigricans isolates, PDA media containing 5 ppm of vinclozolin, after 4 days
  color reaction: allowed 1 of the Rhizopus nigricans contaminated isolates to react
[3]; isolate RP-1, PDA media, vinclozolin 5.0ppm
  COLOR CHANGE DIAMETER: T
[3]; isolate RP-1, PDA media, vinclozolin 10.0ppm
  COLOR CHANGE DIAMETER: 0 mm
[3]; isolate RP-1, WA-dextrose media, vinclozolin 5.0ppm
  COLOR CHANGE DIAMETER: 0 mm
[3]; isolate RP-1, WA-dextrose media, vinclozolin 10.0ppm
  COLOR CHANGE DIAMETER: 0 mm
[3]; isolate RP-2, PDA media, vinclozolin 5.0ppm
  COLOR CHANGE DIAMETER: T
[3]; isolate RP-2, PDA media, vinclozolin 10.0ppm
  COLOR CHANGE DIAMETER: 0 mm
[3]; isolate RP-2, WA-dextrose media, vinclozolin 5.0ppm
  COLOR CHANGE DIAMETER: 0 mm
[3]; isolate RP-2, WA-dextrose media, vinclozolin 10.0ppm
  COLOR CHANGE DIAMETER: 0 mm
[4]; isolate BC-1 res., PDA media, vinclozolin 5.0ppm
  COLOR CHANGE DIAMETER: 5 mm
[4]; isolate BC-1 res., PDA media, vinclozolin 10.0ppm
  COLOR CHANGE DIAMETER: 0 mm
[4]; isolate BC-1 res., WA-dextrose media, vinclozolin 5.0ppm
  COLOR CHANGE DIAMETER: T^a
[4]; isolate BC-1 res., WA-dextrose media, vinclozolin 10.0ppm
  COLOR CHANGE DIAMETER: 5 mm
[4]; isolate BC-2 res., PDA media, vinclozolin 5.0ppm
  COLOR CHANGE DIAMETER: 10 mm
[4]; isolate BC-2 res., PDA media, vinclozolin 10.0ppm
  COLOR CHANGE DIAMETER: 0 mm
[4]; isolate BC-2 res., WA-dextrose media, vinclozolin 5.0ppm
  COLOR CHANGE DIAMETER: 10 mm
[4]; isolate BC-2 res., WA-dextrose media, vinclozolin 10.0ppm
  COLOR CHANGE DIAMETER: 5 mm
[4]; isolate BC-3 resistant, PDA media, vinclozolin 5.0ppm
  COLOR CHANGE DIAMETER: 10 mm
[4]; isolate BC-3 resistant, PDA media, vinclozolin 10.0ppm
  COLOR CHANGE DIAMETER: 0 mm
[4]; isolate BC-3 resistant, WA-dextrose media, vinclozolin 5.0ppm
  COLOR CHANGE DIAMETER: 10 mm
[4]; isolate BC-3 resistant, WA-dextrose media, vinclozolin 10.0ppm
  COLOR CHANGE DIAMETER: 10 mm
[4]; isolate BC-A sensitive, PDA media, vinclozolin 5.0ppm
  COLOR CHANGE DIAMETER: 0 mm
[4]; isolate BC-A sensitive, PDA media, vinclozolin 10.0ppm
  COLOR CHANGE DIAMETER: 0 mm
[4]; isolate BC-A sensitive, WA-dextrose media, vinclozolin 5.0ppm
  COLOR CHANGE DIAMETER: 0 mm
[4]; isolate BC-A sensitive, WA-dextrose media, vinclozolin 10.0ppm
  COLOR CHANGE DIAMETER: 0 mm
[4]; isolate BC-B sens., PDA media, vinclozolin 5.0ppm
  COLOR CHANGE DIAMETER: 0 mm
[4]; isolate BC-B sens., PDA media, vinclozolin 10.0ppm
  COLOR CHANGE DIAMETER: 0 mm
[4]; isolate BC-B sens., WA-dextrose media, vinclozolin 5.0ppm
  COLOR CHANGE DIAMETER: 0 mm
[4]; isolate BC-B sens., WA-dextrose media, vinclozolin 10.0ppm
  COLOR CHANGE DIAMETER: 0 mm
[4]; isolate BC-D sens., PDA media, vinclozolin 5.0ppm
  COLOR CHANGE DIAMETER: 0 mm
[4]; isolate BC-D sens., PDA media, vinclozolin 10.0ppm
  COLOR CHANGE DIAMETER: 0 mm
[4]; isolate BC-D sens., WA-dextrose media, vinclozolin 5.0ppm
  COLOR CHANGE DIAMETER: 0 mm
[4]; isolate BC-D sens., WA-dextrose media, vinclozolin 10.0ppm
  COLOR CHANGE DIAMETER: 0 mm
[4]; resistant isolates, PDA media containing 10 ppm of vinclozolin, after 4 days
  color change: no measurable color change
[5]; isolate RP-3, pH 7.5, 18 hours
  DIAMETER OF COLOR CHANGE: T
[5]; isolate RP-3, pH 8.0, 18 hours
  DIAMETER OF COLOR CHANGE: T
[5]; isolate RP-3, pH 8.5, 18 hours
  DIAMETER OF COLOR CHANGE: T
[5]; isolate RP-4, pH 7.5, 18 hours
  DIAMETER OF COLOR CHANGE: T
[5]; isolate RP-4, pH 8.0, 18 hours
  DIAMETER OF COLOR CHANGE: T
[5]; isolate RP-4, pH 8.5, 18 hours
  DIAMETER OF COLOR CHANGE: T
[6]; isolate BC-4 (vinclozolin resistant), vinclozolin 500 ppm
  Color Change Response: T
[6]; isolate BC-4 (vinclozolin resistant), vinclozolin 1000 ppm
  Color Change Response: T
[6]; isolate BC-A (vinclozolin sensitive), vinclozolin 1000 ppm
  Color Change Response: T
[7]; isolate BC-1 resistant, vinclozolin 2.5 ppm
  Percent Germination: 100%
[7]; isolate BC-1 resistant, vinclozolin 5.0 ppm
  Percent Germination: 100%
[7]; isolate BC-1 resistant, vinclozolin 10.0 ppm
  Percent Germination: 100%
[7]; isolate BC-2 res., vinclozolin 2.5 ppm
  Percent Germination: 100%
[7]; isolate BC-2 res., vinclozolin 5.0 ppm
  Percent Germination: 100%
[7]; isolate BC-2 res., vinclozolin 10.0 ppm
  Percent Germination: 100%
[7]; isolate BC-3 res., vinclozolin 2.5 ppm
  Percent Germination: 100%
[7]; isolate BC-3 res., vinclozolin 5.0 ppm
  Percent Germination: 90%
[7]; isolate BC-3 res., vinclozolin 10.0 ppm
  Percent Germination: 80%
[7]; isolate BC-4 res., vinclozolin 2.5 ppm
  Percent Germination: 100%
[7]; isolate BC-4 res., vinclozolin 5.0 ppm
  Percent Germination: 100%
[7]; isolate BC-4 res., vinclozolin 10.0 ppm
  Percent Germination: 100%
[7]; isolate BC-5 res., vinclozolin 2.5 ppm
  Percent Germination: 100%
[7]; isolate BC-5 res., vinclozolin 5.0 ppm
  Percent Germination: 100%
[7]; isolate BC-5 res., vinclozolin 10.0 ppm
  Percent Germination: 90%
[7]; isolate BC-6 res., vinclozolin 2.5 ppm
  Percent Germination: 100%
[7]; isolate BC-6 res., vinclozolin 5.0 ppm
  Percent Germination: 100%
[7]; isolate BC-6 res., vinclozolin 10.0 ppm
  Percent Germination: 100%
[7]; isolate BC-A sensitive, vinclozolin 2.5 ppm
  Percent Germination: 0%
[7]; isolate BC-A sensitive, vinclozolin 5.0 ppm
  Percent Germination: 0%
[7]; isolate BC-A sensitive, vinclozolin 10.0 ppm
  Percent Germination: 0%
[7]; isolate BC-B sens., vinclozolin 2.5 ppm
  Percent Germination: 0%
[7]; isolate BC-B sens., vinclozolin 5.0 ppm
  Percent Germination: 0%
[7]; isolate BC-B sens., vinclozolin 10.0 ppm
  Percent Germination: 0%
[7]; isolate BC-C sens., vinclozolin 2.5 ppm
  Percent Germination: 0%
[7]; isolate BC-C sens., vinclozolin 5.0 ppm
  Percent Germination: 0%
[7]; isolate BC-C sens., vinclozolin 10.0 ppm
  Percent Germination: 0%
[7]; isolate BC-D sens., vinclozolin 2.5 ppm
  Percent Germination: 0%
[7]; isolate BC-D sens., vinclozolin 5.0 ppm
  Percent Germination: 0%
[7]; isolate BC-D sens., vinclozolin 10.0 ppm
  Percent Germination: 0%
